From patent EP4701641B1, “5-AMINO-2,3-DIHYDRO-1,4-PHTHAL[…] THE PROPHYLAXIS AND TREATMENT OF […]” (MetrioPharm AG, priority 2023, dated 2025)
Read-outs that look alike come from different tables or passages of the source.

How the values were obtained:
[1] = test system: D-dimer; settings: for D-dimer concentration (median of the group): plasma
Excerpt: The study was randomized, double-blind, and placebo-controlled, with enrollment at 20 IEC (independent ethics committee)-approved sites across six countries (Bulgaria, France, Hungary, Italy Romania, Spain); a list of all participating sites is published on clinicaltrials.gov. (NCT04932941). This study was partially funded by the COVID-19 Horizon Europe work programme (Project No.: 101046182). The funder of the study had no role in study design, data collection, data analysis, data interpretation, or writing of the report.
Further details on the in- and exclusion criteria are available on cliniclatrials.gov NCT04932941.
Stratification factors included baseline COVID-19 severity and age-class (aged ≤ 65 years versus > 65 years).
Patients were treated for 28 days. […] These patients were discharged from the hospital before and received medication (verum or placebo) for continuing self-treatment for the remaining time at home. After 60 days there was a follow-up visit.
The D-dimer level is an important prognostic marker for COVID-19 severity. An elevated D-dimer level is associated with thromboembolic complications. For monitoring the development of this biomarker throughout the study blood samples were taken at Days 1, 7, 14, 21, 28 and 60. The D-dimer concentration was determined (PPD Central Lab, Zaventem, Belgium) from the plasma by means of monoclonal antibodies quantified in an ELISA (cf. Olson (2015) Adv Clin Chem 69: 1 - 46; Johnson et al. (2019) Am J Hematol 94: 833-839).

[2] = test system: Coronary artery smooth muscle cells; settings: added 1 hour before stimulation with IL-1β, TNF-α and IFN-γ, 48 hours in culture, triplicates averaged
Experimental: Coronary artery smooth muscle cells pooled from human donors (n = 3) were commercially acquired and cultured according to the recommendations of the manufacturer. They were stimulated with IL-1β, TNF-α and IFN-γ to emulate conditions of vascular inflammation. The […] were cultured in 96 well-plates until confluence. Details are described in Kunkel et al. (2004) FASEB J 18: 1279-1281). […] The substance was added at the indicated concentration 1 hour before stimulation and remained in culture for 48 hours. Each plate contained positive and negative controls (non-stimulated cells) as well as vehicle controls (buffer solution). Direct ELISA (enzyme-linked immunosorbent assay) was used to measure thrombomodulin levels. Soluble factors from supernatants were quantified using capture ELISA.
Measurements were carried out in triplicates which were then averaged and divided by the average of vehicle control samples. Vehicle control samples were taken as 100%.

[3] = test system: hospitalized patients with moderate to severe COVID-19
[4] = test system: SARS-CoV-2; settings: SARS-CoV-2 infected cells; from WO 2021/249667; cited from earlier work

Nc1cccc2c(=O)[nH][nH]c(=O)c12.[Na] [5-amino-2,3-dihydro-1,4-phthalazinedione sodium salt]
D-dimer concentration (median of the group) ([1]; day 60 (follow-up visit)): 138.0 ng/mL DDU | modelled effect on D-dimer levels compared to placebo ([1]; post-hoc analysis, modelled, p<0.001, Fig. 1): significant decrease | D-dimer concentration (median of the group) ([1]; treatment day 1, 300 mg BID plus SoC): 235.5 ng/mL DDU | D-dimer concentration (median of the group) ([1]; treatment day 7, 300 mg BID plus SoC): 205.0 ng/mL DDU | D-dimer concentration (median of the group) ([1]; treatment day 14, 300 mg BID plus SoC): 171.0 ng/mL DDU | D-dimer concentration (median of the group) ([1]; treatment day 21, 300 mg BID plus SoC): 208.0 ng/mL DDU | D-dimer concentration (median of the group) ([1]; treatment day 28, 300 mg BID plus SoC): 172.0 ng/mL DDU | thrombomodulin release (vehicle control = 100%) ([2]; 62.5 µM): 127.4% | thrombomodulin release (vehicle control = 100%) ([2]; 250 µM): 115.1% | thrombomodulin release (vehicle control = 100%) ([2]; 1 mM): 159.6% | thrombomodulin release (vehicle control = 100%) ([2]; 4 mM): 255.9% | disease resolution by Day 14 (patients) ([3]; 300 mg BID plus SoC, placebo group 31/43): 69/82 | effect on hemostasis (clinical parameters or adverse side effects) ([3]; clinical study in COVID-19 patients): no evidence | replication of the virus [4]: suppress dose-dependently
